Measurements: patent US20090099195A1 (ASTRAZENECA AB, priority 2007, published 2009)

Target: T1, hP2X3 (human Purinergic P2X receptors subtype 3), clone B (Homo sapiens, UniProt P56373)
T1 sequence (P56373 1-397): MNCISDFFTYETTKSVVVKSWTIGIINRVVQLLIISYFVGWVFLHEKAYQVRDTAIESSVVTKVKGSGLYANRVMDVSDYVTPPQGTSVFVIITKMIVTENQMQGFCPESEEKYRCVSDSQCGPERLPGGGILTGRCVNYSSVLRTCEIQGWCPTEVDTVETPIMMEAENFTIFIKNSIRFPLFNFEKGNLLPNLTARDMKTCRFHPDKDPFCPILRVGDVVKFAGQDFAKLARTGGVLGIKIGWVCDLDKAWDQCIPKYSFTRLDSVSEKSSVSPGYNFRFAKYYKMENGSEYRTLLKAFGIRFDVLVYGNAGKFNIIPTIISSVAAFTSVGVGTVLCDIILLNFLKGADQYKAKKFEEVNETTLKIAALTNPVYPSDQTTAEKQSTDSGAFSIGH
Assay: hP2X3 FLIPR calcium (Fluo-4) antagonist assay, clone B
Settings: Human P2X3 FLIPR Clone B IC50 (nM), RLE cells expressing hP2X3 clone B (NM_002559); agonist 500 nM α,β-methylene-ATP

| Compound | IC50 |
| --- | --- |
| CC(=O)N1CCN(c2nc3c(c(N(Cc4cc5ccccc5cn4)C(C)C)n2)CN(C(C)C)C3=O)CC1 [Example 254, 2-(4-acetylpiperazin-1-yl)-6-isopropyl-4-(isopropyl(isoquinolin-3-ylmethyl)amino)-5H-pyrrolo[3,4-d]pyrimidin-7(6H)-one] | 75 nM |
| CC(=O)N1CCN(c2nc3c(c(N4CCCC4c4ccc(N(C)C)cc4)n2)CN(C(C)C)C3=O)CC1 (stereo not shown) [Example 267, 4-(4-acetylpiperazin-1-yl)-2-[2-(4-dimethylaminophenyl)pyrrolidin-1-yl]-8-propan-2-yl-3,5,8-triazabicyclo[4.3.0]nona-1,3,5-trien-7-one] | 480 nM |
| CC(=O)N(Cc1cc2ccccc2cn1)c1nc(N2CCN(C(C)=O)[C@H](C)C2)nc2c1CN(C(C)C)C2=O [Example 326, (R)—N-(2-(4-acetyl-3-methylpiperazin-1-yl)-6-isopropyl-7-oxo-6,7-dihydro-5H-pyrrolo[3,4-d]pyrimidin-4-yl)-N-(isoquinolin-3-ylmethyl)acetamide] | 590 nM |
| CC(C)N1Cc2c(NCc3cnc4ccccc4c3)nc(N3CCN(C(=O)N(C)C)CC3)nc2C1=O [Example 221, N,N-dimethyl-4-{6-(1-methylethyl)-7-oxo-4-[(quinolin-3-ylmethyl)amino]-6,7-dihydro-5H-pyrrolo[3,4-d]pyrimidin-2-yl}piperazine-1-carboxamide] | 5800 nM |
| CC(=O)N1CCN(c2nc(N[C@H](C)c3ccc4c(c3)CCC4)c3c(n2)C(=O)N(C(C)C)C3)CC1 [Example 172, (R)-2-(4-acetylpiperazin-1-yl)-4-(1-(2,3-dihydro-1H-inden-5-yl)ethylamino)-6-isopropyl-5H-pyrrolo[3,4-d]pyrimidin-7(6H)-one] | 44 nM |
| CC(=O)N1CCN(c2nc(NCc3cnc4ccccc4c3)c3c(n2)C(=O)N(C(C)C)C3)C[C@@H]1C [Example 327, (S)-2-(4-acetyl-3-methylpiperazin-1-yl)-6-isopropyl-4-(quinolin-3-ylmethylamino)-5H-pyrrolo[3,4-d]pyrimidin-7(6H)-one] | 91 nM |
| CC(=O)N1CCN(c2nc(NC(C)c3ccc(Cl)cc3)c3c(n2)C(=O)N(C(C)C)C3)CC1 (stereo not shown) [Example 53, 2-(4-acetylpiperazin-1-yl)-4-{[1-(4-chlorophenyl)ethyl]amino}-6-isopropyl-5,6-dihydro-7H-pyrrolo[3,4-d]pyrimidin-7-one] | 750 nM |
| COc1ccc(C(Nc2nc(N3CCN(C(C)=O)CC3)nc3c2CN(C(C)C)C3=O)c2ccccc2)cc1 (stereo not shown) [Example 103, 2-(4-Acetyl-piperazin-1-yl)-6-isopropyl-4-{[(4-methoxy-phenyl)-phenyl-methyl]-amino}-5,6-dihydro-pyrrolo[3,4-d]pyrimidin-7-one] | 310 nM |
| CC(=O)N1CCN(c2nc(NC(C)C3COc4ccccc4O3)c3c(n2)C(=O)N(C(C)C)C3)CC1 (single isomer, unassigned) [Example 178, 2-(4-acetylpiperazin-1-yl)-4-(1-(2,3-dihydrobenzo[b][1,4]dioxin-2-yl)ethylamino)-6-isopropyl-5H-pyrrolo[3,4-d]pyrimidin-7(6H)-one] | 970 nM |
| CC(=O)N(C)C1CCN(c2nc(NC(C)(C)Cc3ccc(Cl)cc3)c3c(n2)C(=O)N(C(C)C)C3)C1 (stereo not shown) [Example 67, N-[1-(4-{[2-(4-chlorophenyl)-1,1-dimethylethyl]amino}-6-isopropyl-7-oxo-6,7-dihydro-5H-pyrrolo[3,4-d]pyrimidin-2-yl)pyrrolidin-3-yl]-N-methylacetamide] | 450 nM |
| CC(=O)N1CCN(c2nc(NCc3cc(-c4ccccc4)nn3C)c3c(n2)C(=O)N(C(C)C)C3)CC1 [Example 154, 4-(4-acetylpiperazin-1-yl)-2-[(2-methyl-5-phenyl-pyrazol-3-yl)methylamino]-8-propan-2-yl-3,5,8-triazabicyclo[4.3.0]nona-1,3,5-trien-7-one] | 160 nM |
| O=C1c2nc(N3CCOCC3)nc(NC(c3ccccc3)c3ccccc3)c2CN1C1CC1 [Example 74, 4-(Benzhydryl-amino)-6-cyclopropyl-2-morpholin-4-yl-5,6-dihydro-pyrrolo[3,4-d]pyrimidin-7-one] | 4300 nM |
| CC(C)CN1Cc2c(NC(c3ccccc3)c3ccccc3)nc(N3CCOCC3)nc2C1=O [Example 73, 4-(Benzhydryl-amino)-6-isobutyl-2-morpholin-4-yl-5,6-dihydro-pyrrolo[3,4-d]pyrimidin-7-one] | 3800 nM |
| CCN1CCN(c2nc(NC(C)(C)Cc3ccc(Cl)cc3)c3c(n2)C(=O)N(C(C)C)C3)CC1 [Example 64, 4-{[2-(4-chlorophenyl)-1,1-dimethylethyl]amino}-2-(4-ethylpiperazin-1-yl)-6-isopropyl-5,6-dihydro-7H-pyrrolo[3,4-d]pyrimidin-7-one] | 3500 nM |
| COc1ccc(CNc2nc(N3CCN(C(C)=O)CC3)nc3c2CN(C(C)C)C3=O)c2cccnc12 [Example 240, 2-(4-acetylpiperazin-1-yl)-6-isopropyl-4-((8-methoxyquinolin-5-yl)methylamino)-5H-pyrrolo[3,4-d]pyrimidin-7(6H)-one] | 1500 nM |
| COCCNc1nc(NC(c2ccccc2)c2ccc(C)cc2)c2c(n1)C(=O)N(C(C)C)C2 (stereo not shown) [Example 98, 6-isopropyl-2-(2-methoxy-ethylamino)-4-[(phenyl-p-tolyl-methyl)-amino]-5,6-dihydro-pyrrolo[3,4-d]-pyrimidin-7-one] | 210 nM |
| COc1ccc(CC2CCCN2c2nc(N3CCN(C(C)=O)CC3)nc3c2CN(C(C)C)C3=O)cc1 (single isomer, unassigned) [Example 288, 2-(4-acetylpiperazin-1-yl)-6-isopropyl-4-[2-[(4-methoxyphenyl)methyl]pyrrolidin-1-yl]-5H-pyrrolo[3,4-d]pyrimidin-7-one] | 1400 nM |
| CCC(Nc1nc(N2CCN(C(C)=O)CC2)nc2c1CN(C(C)C)C2=O)c1ccc(C)cc1 (stereo not shown) [Example 36, 2-(4-acetylpiperazin-1-yl)-6-isopropyl-4-{[1-(4-methylphenyl)propyl]amino}-5,6-dihydro-7H-pyrrolo[3,4-d]pyrimidin-7-one] | 1800 nM |
| CC(=O)N1CCN(c2nc3c(c(N4CCCC4c4ccc(Cl)cc4)n2)CN(C(C)C)C3=O)CC1 (stereo not shown) [Example 52, 2-(4-acetylpiperazin-1-yl)-4-[2-(4-chlorophenyl)pyrrolidin-1-yl]-6-isopropyl-5,6-dihydro-7H-pyrrolo[3,4-d]pyrimidin-7-one] | 720 nM |
| CC(C)N1Cc2c(NC(c3ccc(F)cc3)c3ccc(F)cc3)nc(NCCN(C)C)nc2C1=O [Example 17, 4-{[bis(4-fluorophenyl)methyl]amino}-2-{[2-(dimethylamino)ethyl]amino}-6-isopropyl-5,6-dihydro-7H-pyrrolo[3,4-d]pyrimidin-7-one] | 70 nM |
| CC(=O)N1CCN(c2nc(NC(C)(C)Cc3ccc(F)cc3)c3c(n2)C(=O)N(C(C)C)C3)C(C)C1 (stereo not shown) [Example 139, 2-(4-Acetyl-2-methyl-piperazin-1-yl)-4-[2-(4-fluoro-phenyl)-1,1-dimethyl-ethylamino]-6-isopropyl-5,6-dihydro-pyrrolo[3,4-d]pyrimidin-7-one] | 1000 nM |
| CC(=O)N1CCN(c2nc(NC3CCN(c4cccc(C)c4)C3)c3c(n2)C(=O)N(C(C)C)C3)CC1 (stereo not shown) [Example 224, 2-(4-acetylpiperazin-1-yl)-6-isopropyl-4-(1-m-tolylpyrrolidin-3-ylamino)-5H-pyrrolo[3,4-d]pyrimidin-7(6H)-one] | 4100 nM |
| CC(C)N1Cc2c(NC(c3ccc(F)cc3)c3ccc(F)cc3)nc(N(C)CCN(C)C)nc2C1=O [Example 24, 4-{[bis(4-fluorophenyl)methyl]amino}-2-[[2-(dimethylamino)ethyl](methyl)amino]-6-isopropyl-5,6-dihydro-7H-pyrrolo[3,4-d]pyrimidin-7-one] | 190 nM |
| CCC(C)N1Cc2c(NCc3cc4ccccc4cn3)nc(N3CCN(C(C)=O)CC3)nc2C1=O (single isomer, unassigned; (+)) [Example 310, (+)-2-(4-acetylpiperazin-1-yl)-4-(3-isoquinolylmethylamino)-6-sec-butyl-5H-pyrrolo[3,4-d]pyrimidin-7-one] | 29 nM |
| CCN1CCN(c2cc(C(F)(F)F)ccc2CNc2nc(N3CCN(C(C)=O)CC3)nc3c2CN(C(C)C)C3=O)CC1 [Example 223, 2-(4-acetylpiperazin-1-yl)-4-(2-(4-ethylpiperazin-1-yl)-4-(trifluoromethyl)benzylamino)-6-isopropyl-5H-pyrrolo[3,4-d]pyrimidin-7(6H)-one] | 620 nM |
| CCOc1cc([C@@H](C)Nc2nc(N3CCN(C(C)=O)CC3)nc3c2CN(C(C)C)C3=O)ccc1C [Example 174, (R)-2-(4-acetylpiperazin-1-yl)-4-(1-(3-ethoxy-4-methylphenyl)ethylamino)-6-isopropyl-5H-pyrrolo[3,4-d]pyrimidin-7(6H)-one] | 600 nM |
| CC(=O)N1CCN(c2nc(N[C@H](C)c3ccc4c(c3)CCO4)c3c(n2)C(=O)N(C(C)C)C3)CC1 [Example 160, (R)-2-(4-acetylpiperazin-1-yl)-4-(1-(2,3-dihydrobenzofuran-5-yl)ethylamino)-6-isopropyl-5H-pyrrolo[3,4-d]pyrimidin-7(6H)-one] | 320 nM |
| CC(=O)N1CCN(c2nc3c(c(N(C)Cc4ccc5ncccc5c4)n2)CN(C(C)C)C3=O)CC1 [Example 239, 2-(4-acetylpiperazin-1-yl)-6-isopropyl-4-(methyl(quinolin-6-ylmethyl)amino)-5H-pyrrolo[3,4-d]pyrimidin-7(6H)-one] | 1200 nM |
